Assay results as given in patent publication US20060069132A1, “Azolecarboxamide herbicides” (priority 2004, published 2006).

What was measured:
[1] = tested on: wheat; assay: Test B postemergence herbicide test; type: in vivo, Triticum aestivum; parameters: key to Wheat plant response rating: 0 = no effect, 100 = complete control; conditions: for Wheat plant response rating: postemergence
Method: (§1) At the same time, plants selected from these crop and weed species and also blackgrass (Alopecurus myosuroides Huds.), wheat (Triticum aestivum L.) and wild oat (Avena fatua L.) were treated with postemergence applications of test chemicals formulated in the same manner. Plants ranged in height from 2 to 18 cm (1- to 4-leaf stage) for postemergence treatments. Plant species in the flooded paddy test consisted of rice (Oryza sativa L.), small flower umbrella sedge (Cyperus difformis L.), ducksalad (Heteranthera limosa (Sw.) Willd.) and barnyardgrass (Echinochloa crus-galli (L.) Beauv.) grown to the 2-leaf stage for testing. Treated plants and controls were maintained in a greenhouse for 13 to 15 days, after which time all species were compared to controls and visually evaluated. Plant response ratings, summarized in Table B, are based on a scale of 0 to 100 where 0 is no effect and 100 is complete control. A dash (-) response means no test result.

[2] = tested on: large crabgrass; assay: Test B pre-/postemergence herbicide test; type: in vivo, Digitaria sanguinalis; conditions: for Crabgrass, Large plant response rating: postemergence
From the text: (§2) Seeds selected from barnyardgrass (Echinochloa crus-galli (L.) Beauv.), Surinam grass (Urochloa decumbens (Staph) R. D. Webster, previously named Brachiaria decumbens Stapf), cocklebur (Xanthium strumarium L.), corn (Zea mays L.), large crabgrass (Digitaria sanguinalis (L.) Scop.), giant foxtail (Setaria faberi Herim.), lambsquarters (Chenopodium album L.), morningglory (Ipomoea coccinea L.), pigweed (Amaranthus retroflexus L.), rice (Oryza sativa L.) and velvetleaf (Abutilon theophrasti Medik.) were planted and treated preemergence with test chemicals formulated in a non-phytotoxic solvent mixture which included a surfactant.
as §1

[3] = tested on: small flower umbrella sedge; assay: Test B flooded paddy test; type: in vivo, Cyperus difformis; conditions: 1000 g ai/ha, scale 0 to 100 (0 no effect, 100 complete control)
Method: as §1

[4] = tested on: wild oat; assay: Test B postemergence herbicide test; type: in vivo, Avena fatua; conditions: for Oat, Wild plant response rating: postemergence
Method: as §1

[5] = tested on: barnyardgrass; assay: Test B pre-/postemergence herbicide test; type: in vivo, Echinochloa crus-galli; conditions: for Barnyardgrass plant response rating: postemergence
From the text: as §2, §1

[6] = tested on: pigweed; assay: Test B pre-/postemergence herbicide test; type: in vivo, Amaranthus retroflexus; conditions: for Pigweed plant response rating: postemergence
From the text: as §2, §1

[7] = tested on: ducksalad; assay: Test B flooded paddy test; type: in vivo, Heteranthera limosa; conditions: 1000 g ai/ha, scale 0 to 100 (0 no effect, 100 complete control)
Method: as §1

[8] = tested on: corn; assay: Test B pre-/postemergence herbicide test; type: in vivo, Zea mays; conditions: for Corn plant response rating: postemergence
From the text: as §2, §1

[9] = tested on: velvetleaf; assay: Test B pre-/postemergence herbicide test; type: in vivo, Abutilon theophrasti; conditions: for Velvetleaf plant response rating: postemergence
From the text: as §2, §1

[10] = tested on: barnyardgrass; assay: Test B flooded paddy test; type: in vivo, Echinochloa crus-galli; conditions: 1000 g ai/ha, scale 0 to 100 (0 no effect, 100 complete control)
Method: as §1

[11] = tested on: rice; assay: Test B flooded paddy test; type: in vivo, Oryza sativa; conditions: 1000 g ai/ha, scale 0 to 100 (0 no effect, 100 complete control)
Method: as §1

[12] = tested on: blackgrass; assay: Test B postemergence herbicide test; type: in vivo, Alopecurus myosuroides; conditions: for Blackgrass plant response rating: postemergence
Method: as §1

[13] = tested on: lambsquarters; assay: Test B pre-/postemergence herbicide test; type: in vivo, Chenopodium album; conditions: for Lambsquarters plant response rating: postemergence
From the text: as §2, §1

[14] = tested on: morningglory; assay: Test B pre-/postemergence herbicide test; type: in vivo, Ipomoea coccinea; conditions: for Morningglory plant response rating: postemergence
From the text: as §2, §1

[15] = tested on: giant foxtail; assay: Test B pre-/postemergence herbicide test; type: in vivo, Setaria faberi; conditions: for Foxtail, Giant plant response rating: postemergence
From the text: as §2, §1

[16] = tested on: cocklebur; assay: Test B pre-/postemergence herbicide test; type: in vivo, Xanthium strumarium; conditions: for Cocklebur plant response rating: postemergence
From the text: as §2, §1

[17] = tested on: Surinam grass; assay: Test B pre-/postemergence herbicide test; type: in vivo, Urochloa decumbens; conditions: for Surinam Grass plant response rating: postemergence
From the text: as §2, §1

[18] = Postemergence, 500 g ai/ha, visual rating after 13 to 15 days, scale 0 (no effect) to 100 (complete control)
[19] = 125 g ai/ha, visual rating, scale 0 (no effect) to 100 (complete control)
[20] = 500 g ai/ha, visual rating 0-100, 0 no effect, 100 complete control, preemergence
[21] = preemergence, 125 g ai/ha, 0 to 100 scale, 0 is no effect, 100 is complete control

CCCn1nc(C(C)(C)C)cc1C(=O)Nc1cccc(C(C)=NO)c1 [Compound 113]
Plant response rating, Wheat [1, 18]: 30 | Wheat plant response rating [1, 19]: 10 | Plant response rating, Crabgrass, Large [2, 20]: 100 | Plant response rating, Crabgrass, Large [2, 18]: 80 | Crabgrass, Large plant response rating [2, 19]: 30 | Plant response rating, Crabgrass, Large [2, 21]: 100 | Sedge, Umbrella plant response rating ([3]; visual rating, 13 to 15 days): 90 | Plant response rating, Oat, Wild [4, 18]: 60 | Oat, Wild plant response rating [4, 19]: 40 | Plant response rating, Barnyardgrass [5, 20]: 90 | Plant response rating, Barnyardgrass [5, 18]: 80 | Barnyardgrass plant response rating [5, 19]: 30 | Plant response rating, Barnyardgrass [5, 21]: 60 | Plant response rating, Pigweed [6, 20]: 100 | Plant response rating, Pigweed [6, 18]: 100 | Pigweed plant response rating [6, 19]: 90 | Plant response rating, Pigweed [6, 21]: 0 | Ducksalad plant response rating ([7]; visual rating, 13 to 15 days): 90 | Plant response rating, Corn [8, 20]: 0 | Plant response rating, Corn [8, 18]: 30 | Corn plant response rating [8, 19]: 30 | Plant response rating, Corn [8, 21]: 0 | Plant response rating, Velvetleaf [9, 20]: 20 | Plant response rating, Velvetleaf [9, 18]: 60 | Velvetleaf plant response rating [9, 19]: 20 | Plant response rating, Velvetleaf [9, 21]: 20 | Barnyardgrass plant response rating ([10]; visual rating, 13 to 15 days): 70 | Rice plant response rating ([11]; visual rating, 13 to 15 days): 60 | Plant response rating, Blackgrass [12, 18]: 20 | Blackgrass plant response rating [12, 19]: 10 | Plant response rating, Lambsquarters [13, 20]: 100 | Plant response rating, Lambsquarters [13, 18]: 100 | Lambsquarters plant response rating [13, 19]: 90 | Plant response rating, Lambsquarters [13, 21]: 80 | Plant response rating, Morningglory [14, 20]: 50 | Plant response rating, Morningglory [14, 18]: 100 | Morningglory plant response rating [14, 19]: 20 | Plant response rating, Morningglory [14, 21]: 0 | Plant response rating, Foxtail, Giant [15, 20]: 30 | Plant response rating, Foxtail, Giant [15, 18]: 40 | Foxtail, Giant plant response rating [15, 19]: 30 | Plant response rating, Foxtail, Giant [15, 21]: 10 | Plant response rating, Cocklebur [16, 20]: 20 | Plant response rating, Cocklebur [16, 18]: 100 | Cocklebur plant response rating [16, 19]: 100 | Plant response rating, Cocklebur [16, 21]: 0 | Plant response rating, Surinam Grass [17, 20]: 10 | Plant response rating, Surinam Grass [17, 18]: 60 | Surinam Grass plant response rating [17, 19]: 40 | Plant response rating, Surinam Grass [17, 21]: 10

CCn1nc(C(C)(C)C)cc1C(=O)Nc1cc(C(=O)NC)c(F)cc1F [Compound 251]
Wheat plant response rating ([1]; 16 g ai/ha, scale 0 to 100): 20 | Wheat plant response rating ([1]; 62 g ai/ha, scale 0 to 100): 20 | Crabgrass, Large plant response rating ([2]; 16 g ai/ha, scale 0 to 100): 0 | Crabgrass, Large plant response rating ([2]; 62 g ai/ha, scale 0 to 100): 0 | Sedge, Umbrella plant response rating [3]: 40 | Oat, Wild plant response rating ([4]; 16 g ai/ha, scale 0 to 100): 20 | Oat, Wild plant response rating ([4]; 62 g ai/ha, scale 0 to 100): 20 | Barnyardgrass plant response rating ([5]; 16 g ai/ha, scale 0 to 100): 0 | Barnyardgrass plant response rating ([5]; 62 g ai/ha, scale 0 to 100): 0 | Pigweed plant response rating ([6]; 16 g ai/ha, scale 0 to 100): 0 | Pigweed plant response rating ([6]; 62 g ai/ha, scale 0 to 100): 10 | Ducksalad plant response rating [7]: 30 | Corn plant response rating ([8]; 16 g ai/ha, scale 0 to 100): 0 | Corn plant response rating ([8]; 62 g ai/ha, scale 0 to 100): 0 | Velvetleaf plant response rating ([9]; 16 g ai/ha, scale 0 to 100): 0 | Velvetleaf plant response rating ([9]; 62 g ai/ha, scale 0 to 100): 10 | Barnyardgrass plant response rating [10]: 0 | Rice plant response rating [11]: 40 | Blackgrass plant response rating ([12]; 16 g ai/ha, scale 0 to 100): 10 | Blackgrass plant response rating ([12]; 62 g ai/ha, scale 0 to 100): 50 | Lambsquarters plant response rating ([13]; 16 g ai/ha, scale 0 to 100): 0 | Lambsquarters plant response rating ([13]; 62 g ai/ha, scale 0 to 100): 10 | Morningglory plant response rating ([14]; 16 g ai/ha, scale 0 to 100): 0 | Morningglory plant response rating ([14]; 62 g ai/ha, scale 0 to 100): 0 | Foxtail, Giant plant response rating ([15]; 16 g ai/ha, scale 0 to 100): 0 | Foxtail, Giant plant response rating ([15]; 62 g ai/ha, scale 0 to 100): 0 | Cocklebur plant response rating ([16]; 16 g ai/ha, scale 0 to 100): 0 | Cocklebur plant response rating ([16]; 62 g ai/ha, scale 0 to 100): 0 | Surinam Grass plant response rating ([17]; 16 g ai/ha, scale 0 to 100): 0 | Surinam Grass plant response rating ([17]; 62 g ai/ha, scale 0 to 100): 0
